Results taken from patent publication US10059688B2, “Protein tyrosine kinase modulators and methods of use” (BETTA PHARMACEUTICALS CO., LTD., priority 2013, dated 2018).
Read-outs that look alike come from different tables or passages of the source.

Columns and labels:
ALK (h) = ALK (h) (Homo sapiens (Human), UniProt Q9UM73); experiment: Kinase assay, single dose inhibition (Millipore, 33P-ATP filter binding); assay type: biochemical; conditions: 0.1 μM test compound, 10 μM ATP; remaining activity relative to DMSO control = 100%
Method: (§1) Assay conditions included 10 μM ATP and 100 nM test compounds.
(§2) All reactions are initiated by the addition of the MgATP mix. After incubation for 40 minutes at room temperature, the reaction is stopped by the addition of 3% phosphoric acid solution. 10 μL of the reaction is then spotted onto a P30 filtermat and washed three times for 5 minutes in 75 mM phosphoric acid and once in methanol prior to drying and scintillation counting. This assay is performed by Millipore. The experiment is carried out in duplicate. The value for the control sample (DMSO) was set to 100%, and the values for the compound-treated samples were expressed as activity relative to the control sample.

EGFR (h) = EGFR (h) (Homo sapiens (Human), UniProt P00533); experiment: as above; assay type: biochemical; conditions: 0.1 μM test compound, 10 μM ATP; remaining activity relative to DMSO control = 100%
Method: as §1, §2

EGFR (L858R) (h) = EGFR (L858R) (h) (Homo sapiens (Human), UniProt P00533, L858R); experiment: as above; assay type: biochemical; conditions: 0.1 μM test compound, 10 μM ATP; remaining activity relative to DMSO control = 100%
EGFR (T790M) (h) = EGFR (T790M) (h) (Homo sapiens (Human), UniProt P00533, T790M); experiment: as above; assay type: biochemical; conditions: 0.1 μM test compound, 10 μM ATP; remaining activity relative to DMSO control = 100%
EGFR (T790M, L858R) (h) = EGFR (T790M, L858R) (h) (Homo sapiens (Human), UniProt P00533, L858R/T790M); experiment: as above; assay type: biochemical; conditions: 0.1 μM test compound, 10 μM ATP; remaining activity relative to DMSO control = 100%
ALK = ALK (Homo sapiens (Human), UniProt Q9UM73); experiment: Kinase assay (IC50), fluorescence peptide assay; assay type: biochemical; conditions: 10 pt curve, 1 μM top concentration, Km ATP
Method: (§3) 2.5 μL—4× Test Compound or 100 nL 100× plus 2.4 μL kinase buffer;
5 μL—2× Peptide/Kinase Mixture;
5 μL—Development Reagent Solution;
(§4) 60-minute Development Reaction incubation at room temperature;
(§5) Read on fluorescence plate reader and analyze the data.

EGFR (ErbB1) T790M = EGFR (ErbB1) T790M (Homo sapiens (Human), UniProt P00533, T790M); experiment: Kinase assay (IC50), fluorescence peptide assay; assay type: biochemical; conditions: 10 pt curve, 1 μM top concentration, Km ATP
Method: as §3
5 μL—2× Peptide/Kinase Mixture;
5 μL—Development Reagent Solution;
as §4, §5

EGFR (ErbB1) = EGFR (ErbB1) (Homo sapiens (Human), UniProt P00533); experiment: Kinase assay (IC50), fluorescence peptide assay; assay type: biochemical; conditions: EGFR WT; 10 pt curve, 10 μM top concentration, Km ATP
Method: as §3
5 μL—2× Peptide/Kinase Mixture;
5 μL—Development Reagent Solution;
as §4, §5

[1] = test system: H1975 (EGFR L858R/T790M) NSCLC cells; experiment: Cell proliferation assay (MTS cell viability); assay type: cell-based; conditions: for IC50: H1975 cells, 3 days of exposure, MTS; for GI50: NCI-H1975, one set of studies, read-out: GI50, proliferation of H1975 cells expressing EGFR-L858R/T790M
[2] = test system: HCC827 (EGFR Del) NSCLC cells; experiment: Cell proliferation assay (MTS cell viability); assay type: cell-based; conditions: for IC50: HCC827 cells, 3 days of exposure, MTS; for GI50: HCC827, one set of studies, read-out: GI50, proliferation of HCC827 cells expressing EGFR Del
[3] = test system: A549 (EGFR WT) NSCLC cells; experiment: Cell proliferation assay (MTS cell viability); assay type: cell-based; conditions: for IC50: A549 cells, 3 days of exposure, MTS; for GI50: A549
Method: (§6) Effects of test compounds on in vitro proliferation were measured by MTS cell viability assay.
A549 cells were maintained in Ham's F12K medium (Gibco) supplemented with 10% FBS, 100 units/mL penicillin, 100 units/mL streptomycin, and 2 mM glutamine.
(§7) Prepare test compounds in each well with a final medium volume of 200 μl;
Incubate for 3 days of exposure;
(§8) Prepare reagents following the instructions in the Cell Proliferation Assay kit (Promega);
(§9) Change to serum-free medium with a final volume of 100 l/well. Prepare a set of wells with medium only for background subtraction;
(§10) Add 20 μl MTS solution containing PMS to each well (final concentration of MTS will be 0.33 mg/ml);
(§11) Incubate 1 to 4 hours at 37° C. in a humidified, 5% CO2 atmosphere.
(§12) Record absorbance at 490 nm using VICTOR™ X5 plate reader (PerkinElmer).
(§13) All experimental points were set up in three wells and all experiments were repeated at least three times.

A431 (EGFR WT) cells = experiment: Cell proliferation assay (MTS cell viability); assay type: cell-based; conditions: 3 days of exposure
Method: as §6
A431 cells were maintained in DMEM (Gibco) supplemented with 10% FBS, 100 units/mL penicillin, 100 units/mL streptomycin, and 2 mM glutamine.
as §7
Incubate for 3 days of exposure;
as §8, §9, §10, §11, §12, §13

[4] = test system: activated and resistant T790M forms of EGFR; EGFR WT; experiment: In vitro cellular assays, statements across cell lines; assay type: cell-based; conditions: result in words
Method: as §6

EGFR (ErbB1) T790M L858R = EGFR (ErbB1) T790M L858R (Homo sapiens (Human), UniProt P00533, L858R/T790M)
Method: as §3
5 μL—2× Peptide/Kinase Mixture;
5 μL—Development Reagent Solution;
as §4, §5

EGFR (ErbB1) L858R = EGFR (ErbB1) L858R (Homo sapiens (Human), UniProt P00533, L858R); experiment: Kinase assay (IC50), fluorescence peptide assay; conditions: read-out: IC50 EGFR (ErbB1) L858R; 10 pt curve, 1 μM top concentration, Km ATP
[5] = Phase I trial; cited from earlier work
[6] = test system: Ba/F3 cells harboring EGFR T790M in conjunction with different exon 19 deletion mutations; conditions: read-out: IC50 required to inhibit the growth of Ba/F3 cells harboring EGFR T790M; cited from earlier work
lung cancer patients = conditions: all lung cancer patients, not selected for EGFR mutation; cited from earlier work
[7] = test system: patients with EGFR mutations; conditions: six prospective trials; cited from earlier work
[8] = read-out: IC50 EGFR (ErbB1) T790M L858R, 10 pt curve, 1 μM top concentration, Km ATP

ALK, sequence (Q9UM73 19-1620): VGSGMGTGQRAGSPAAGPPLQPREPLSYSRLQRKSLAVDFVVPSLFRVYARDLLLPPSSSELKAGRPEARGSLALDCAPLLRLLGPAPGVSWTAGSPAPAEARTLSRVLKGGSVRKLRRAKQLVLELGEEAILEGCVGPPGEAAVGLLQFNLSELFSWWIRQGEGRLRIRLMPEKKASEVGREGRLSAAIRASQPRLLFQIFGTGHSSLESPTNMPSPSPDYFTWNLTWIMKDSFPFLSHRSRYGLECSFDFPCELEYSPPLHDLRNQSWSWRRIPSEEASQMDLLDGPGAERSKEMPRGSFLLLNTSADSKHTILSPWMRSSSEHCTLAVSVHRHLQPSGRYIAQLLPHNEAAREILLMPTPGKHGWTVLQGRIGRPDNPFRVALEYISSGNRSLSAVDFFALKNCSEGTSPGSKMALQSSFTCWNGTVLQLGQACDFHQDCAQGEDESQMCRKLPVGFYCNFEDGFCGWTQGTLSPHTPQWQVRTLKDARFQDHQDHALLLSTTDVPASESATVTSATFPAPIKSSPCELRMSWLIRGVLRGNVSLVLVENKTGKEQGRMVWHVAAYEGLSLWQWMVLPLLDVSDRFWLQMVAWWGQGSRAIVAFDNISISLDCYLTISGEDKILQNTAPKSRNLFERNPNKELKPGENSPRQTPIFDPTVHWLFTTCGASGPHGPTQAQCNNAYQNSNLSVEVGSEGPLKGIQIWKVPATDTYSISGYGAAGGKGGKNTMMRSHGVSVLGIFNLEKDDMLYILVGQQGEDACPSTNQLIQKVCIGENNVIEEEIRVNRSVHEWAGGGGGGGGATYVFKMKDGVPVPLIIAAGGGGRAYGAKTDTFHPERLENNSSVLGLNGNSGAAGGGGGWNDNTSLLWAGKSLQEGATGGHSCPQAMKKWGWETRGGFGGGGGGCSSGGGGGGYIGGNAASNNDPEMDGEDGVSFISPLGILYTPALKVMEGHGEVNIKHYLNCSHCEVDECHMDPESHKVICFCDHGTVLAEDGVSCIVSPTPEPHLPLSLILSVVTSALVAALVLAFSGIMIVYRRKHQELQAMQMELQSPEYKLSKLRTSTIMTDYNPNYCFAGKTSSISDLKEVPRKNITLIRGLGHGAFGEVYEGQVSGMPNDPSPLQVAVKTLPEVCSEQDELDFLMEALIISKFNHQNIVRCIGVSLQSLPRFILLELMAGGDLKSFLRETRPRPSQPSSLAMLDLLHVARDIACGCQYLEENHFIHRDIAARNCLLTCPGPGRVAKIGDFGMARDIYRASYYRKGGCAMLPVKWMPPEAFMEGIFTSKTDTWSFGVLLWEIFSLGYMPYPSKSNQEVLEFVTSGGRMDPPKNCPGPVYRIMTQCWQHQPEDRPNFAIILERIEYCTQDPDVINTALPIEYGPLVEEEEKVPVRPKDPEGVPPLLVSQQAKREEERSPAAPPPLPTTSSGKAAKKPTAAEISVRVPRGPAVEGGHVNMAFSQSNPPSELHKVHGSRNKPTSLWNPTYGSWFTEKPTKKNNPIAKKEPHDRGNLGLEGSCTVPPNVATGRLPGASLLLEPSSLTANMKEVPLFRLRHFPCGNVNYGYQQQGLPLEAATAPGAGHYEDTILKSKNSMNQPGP
ALK (h), sequence (Q9UM73 19-1620): as above

Compound	Activity (control) % ALK (h) (ALK (h)) [%]	Activity (control) % EGFR (h) (EGFR (h)) [%]	Activity (control) % EGFR (L858R) (h) (EGFR (L858R) (h)) [%]	Activity (control) % EGFR (T790M) (h) (EGFR (T790M) (h)) [%]	Activity (control) % EGFR (T790M, L858R) (h) (EGFR (T790M, L858R) (h)) [%]	IC50 (ALK) [nM]	IC50 (EGFR (ErbB1) T790M) [nM]	IC50 (EGFR (ErbB1)) [nM]	IC50 ([1]; Homo sapiens, NCI-H1975, 72 h) [nM]	IC50 ([2]; Homo sapiens, 72 h) [nM]	IC50 ([3]; Homo sapiens, 72 h) [nM]	IC50 (A431 (EGFR WT) cells; Homo sapiens, A-431, 72 h) [nM]	activity against both activated and resistant T790M forms of EGFR in vitro cellular assays [4]	IC50 (EGFR (ErbB1) T790M L858R; [8]) [nM]	IC50 (EGFR (ErbB1) L858R) [nM]	other results
COc1cc(Nc2ncc(Cl)c(Nc3ccccc3C(=O)C(=O)N(C)C)n2)ccc1N1CCN(C)CC1 [Example 61, 2-(2-(5-chloro-2-(3-methoxy-4-(4-methylpiperazin-1-yl)phenylamino)pyrimidin-4-ylamino)phenyl)-N,N-dimethyl-2-oxoacetamide]	5	101	70	54	13	12.2	–	–	–	–	–	–	–	–	–	–
C=CC(=O)Nc1ccc(OC)c(Nc2ncc(Cl)c(Nc3ccccc3C(=O)C(=O)N(C)C)n2)c1 [Example 67, N-(3-(5-chloro-4-(2-(2-(dimethylamino)-2-oxoactyl)phenylamino)pyrimidin-2-ylamino)-4-methoxyphenyl)acrylamide]	13	105	85	50	9	17.3	18.9	273	20	20	1580	110	potent activity	15.4	500	GI50 ([1]; Homo sapiens): 20 nM; GI50 ([2]; Homo sapiens): 20 nM; GI50 ([3]; Homo sapiens): > 1500 nM
C=C(CN1CCOCC1)C(=O)Nc1cccc(Nc2ncc(Cl)c(Nc3ccccc3C(=O)C(=O)N(C)C)n2)c1 [Example 112, N-(3-(5-chloro-4-(2-(2-(dimethylamino)-2-oxoacetyl)phenylamino)pyrimidin-2-ylamino)phenyl)-2-(morpholinomethyl)acrylamide]	21	85	66	14	1	–	–	–	10	30	40	100	potent activity	–	–	–
COc1cc(Nc2ncc(Cl)c(Nc3ccccc3C(=O)C(=O)N(C)C)n2)ccc1N1CCC(N(C)C)CC1 [Example 118, 2-(2-(5-chloro-2-(4-(4-(dimethylamino)piperidin-1-yl)-3-methoxyphenylamino)pyrimidin-4-ylamino)phenyl)-N,N-dimethyl-2-oxoacetamide]	3	82	29	18	2	10.8	4.92	77.6	10	20	1890	10	potent activity	5.13	158	GI50 ([1]; Homo sapiens): 10 nM; GI50 ([2]; Homo sapiens): 20 nM; GI50 ([3]; Homo sapiens): > 1500 nM
CCOc1cc2ncc(C#N)c(Nc3ccc(OCc4ccccn4)c(Cl)c3)c2cc1NC(=O)/C=C/CN(C)C [HKI-272]	–	–	–	–	–	–	–	–	–	–	–	–	–	–	–	Cmax [5]: ~200 nM; IC50 [6]: 200 to 800 nM
C#Cc1cccc(Nc2ncnc3cc4c(cc23)OCCOCCOCCO4)c1 [Icotinib, reference compound]	–	–	–	–	–	–	> 1000	1.23	–	–	–	–	–	> 1000	2.02	IC50 (EGFR (ErbB1) T790M L858R; read-out: IC50, resistant mutant EGFR L858R/T790M): ≥ 16.6 nM
C#Cc1cccc(Nc2ncnc3cc(OCCOC)c(OCCOC)cc23)c1 [erlotinib]	–	–	–	–	–	–	–	–	–	–	–	–	–	–	–	likelihood of tumor shrinkage (response rate) (lung cancer patients): 8-10%; median time to tumor progression (lung cancer patients): approximately 2 months; radiographic response rates [7]: 60-82%
N-(5-(5-chloro-4-(2-(2-(dimethylamino)-2-oxoactyl)phenylamino)pyrimidin-2-ylamino)-4-methoxy-2-(4-methylpiperazin-1-yl)phenyl)acrylamide [Example 74]	9	110	–	62	–	–	–	–	–	–	–	–	potent activity	–	–	IC50 [1]: 50 nM; IC50 [2]: 30 nM; IC50 [3]: 620 nM; IC50 (A431 (EGFR WT) cells): 50 nM
